Assay [1] deals with T1, TelJak2 (BaF3 TELJAK cells, TEL/Jak2 fusion) (Homo sapiens, UniProt O60674).
T1 construct: The regions encompassing the kinase domain of JAK2 (nucleotides 2994-3914); expressed in transfected cells; host or cells: BaF3 cells bearing the pTET-off plasmid, transfected with pTELJAK2 (pTRE2 vector); the other entry of the earlier key: ETV6 (P41212, Transcription factor ETV6)
The assay can be described thus: Cellular growth inhibition assay (MTT), BaF3 TEL:JAK2 cell line. The settings on record: Table 1, 40 hr incubation. The class given is cell-based. On the procedure: (§1) For screening purposes, compounds were diluted in 96 well plates at a concentration of 20 μM. Plates were warmed at 37° C. for 30 minutes before assay.
(§2) The coding region encompassing nucleotides 1-487 of TEL was amplified by PCR using the oligonucleotides 5TEL (5′-GGAGGATCCTGATCTCTCTCGCTGTGAGAC-3′) (SEQ ID NO: 1) and 3TEL (5′-AGGC GTCGACTTCTTCTTGATGGTTCTG-3′) (SEQ ID NO: 2) and U937 mRNA as template. A BamH I site was incorporated into the 5TEL primer, and a Sal I site was incorporated into the 3TEL primer. The regions encompassing the kinase domain of JAK2 (nucleotides 2994-3914; JAK2F 5′-ACGC GTCGACGGTGCCTTTGAAGACCGGGAT-3 (SEQ ID NO: 3); JAK2R 5′-ATAGTTTAGCGGCCGCTCAGAATGAAGGTCATTT-3′) (SEQ ID NO: 4) and JAK3 (nucleotides 2520-3469; JAK3F 5′-GAAGTCGACTATGCCTGCCAAGACCCCACGATCTT-3′ (SEQ ID NO: 5); JAK3R 5′-GGATCTAGACTATGAAAAGGACAGGGAGTGGTGTTT-3′ (SEQ ID NO: 6)) were generated by PCR using Taq DNA polymerase (Gibco/BRL) and U937 mRNA as template. A Sal I site was incorporated into the forward primer of JAK2 and JAK3, a Not I site was incorporated into the JAK2 reverse primer and a Xba I site was added to the reverse primer of JAK3.
(§3) A TEL/Jak2 fusion was generated by digestion of the TELPCR product with BamH I/Sa1 I, digestion of the JAK2 PCR product with Sa1 I/Not I followed by ligation and subcloning into the mammalian expression Vector pTRE 2 (Clontech) digested with BamH I-Not I (pTELJAK2). For JAK3 Sa1 I/Not I cleaved kinase domain PCR product was ligated with BamH I/Sa1 I cleaved TELproduct followed by ligation into BamH I/Not I cleaved pTRE2 (pTELJAK3).
(§4) The growth factor dependent myelomonocytic cell line BaF3 bearing the pTET-off plasmid (Clontech) was transfected with either pTELJAK2 or pTELJAK3 and the cells selected for factor independent growth. BaF 3 wild type cells were cultured in DMEM 10% FCS, 10% WEHI 3B conditioned medium. BaF3 TELJAK cells were cultured in DMEM 10% Tet-System Approved FBS (without WEHI 3B conditioned medium).
(§5) Cell suspensions were prepared by harvesting cells from culture. (Cells used in this test should be in later log phase growth and high viability.) Cells were diluted in correct growth medium to 1.1× final concentration (from 50000 cell/mL to 200,000 cell/mL, depending on cell line).
(§6) Compounds to be tested were added (10 μL, 10× final concentration) to a flat bottom 96-well plate. The cellular suspension (90 μL per well) was added, and the plate incubated for 40 hr at 37° C., 5% CO2. MTT (20 μL per well, 5 mg/mL in PBS) was added and the plates were returned to the incubator for a further 6 hours. Lysis buffer (100 μL per well, 10% SDS, 0.01N HCl) was added and the plate stored in the incubator overnight. The plate was then read at 590 nm.

Assay [2] concerns K562 (Chronic Myeloid Leukemia). The assay can be described thus: Cellular growth inhibition assay (MTT), K562. The class given is cell-based. The settings on record: Homo sapiens, Table 1, 40 hr incubation. On the procedure: as §1
(§7) K562 (Chronic Myeloid Leukemia), PC3 (Prostate Cancer), and DU145 (Prostate Cancer) were obtained from the American Type Culture Collection (ATCC). K562 was grown in RPMI, with 10% FBS with Glutamx added. DU145 cells were cultured in DMED, with 10% FBS and Glutamx and MEM non-essential amino acids added. PC3 cells were grown in F12K medium, with 10% FBS and Glutamx and MEM non-essential amino acids added. All cells were grown at 37° C. in 5% CO2.
as §5, §6

The next assay relates to DU145 (Prostate Cancer). Description: Cellular growth inhibition assay (MTT), DU145. The conditions noted are these: Homo sapiens, DU-145, Table 1, 40 hr incubation. It is filed as cell-based. On the procedure: as §1, §7, §5, §6
Assay [3] deals with T2, TelJak3 (BaF3 TELJAK cells, TEL/JAK3 fusion) (Homo sapiens, UniProt P52333).
T2 construct: For JAK3 Sa1 I/Not I cleaved kinase domain PCR product was ligated with BamH I/Sa1 I cleaved TELproduct; expressed in transfected cells; host or cells: BaF3 cells bearing the pTET-off plasmid, transfected with pTELJAK3 (pTRE2 vector); the other entry of the earlier key: ETV6 (P41212, Transcription factor ETV6)
Description: Cellular growth inhibition assay (MTT), BaF3 TEL:JAK3 cell line. It is filed as cell-based. The conditions noted are these: Table 1, 40 hr incubation. The procedure: as §1, §2, §3, §4, §5, §6

The next assay deals with PC3 (Prostate Cancer). Description: Cellular growth inhibition assay (MTT), PC3. It is filed as cell-based. The conditions noted are these: Table 1, 40 hr incubation. On the procedure:
as §1, §7, §5, §6

For assay [4], the system named is Tubulin (microtubule protein). The assay can be described thus: Tubulin assay (turbidometric assay of microtubule assembly). The settings on record: Table 1; 50 μM; absorbance at 340 nm, 37° C. It is filed as biochemical. The procedure: Turbidometric assays of microtubule assembly were performed by incubating microtubule protein in cuvettes at 37° C. in a thermostatically controlled spectrophotometer measuring the change in absorbance at 340 nm over time. The microtubule protein was incubated with the each test compound at 0° C. and polymerisation was initiated by addition of 1 mM GTP, prior to heating to 37° C.

A value given as a limit tells only on which side of the number the result lay.

In general, inhibition refers to the change of the read-out against control, counted positive when it falls. A higher inhibition goes with a response far below the control.

T2 sequence (P52333 with tags, fused parts or gaps): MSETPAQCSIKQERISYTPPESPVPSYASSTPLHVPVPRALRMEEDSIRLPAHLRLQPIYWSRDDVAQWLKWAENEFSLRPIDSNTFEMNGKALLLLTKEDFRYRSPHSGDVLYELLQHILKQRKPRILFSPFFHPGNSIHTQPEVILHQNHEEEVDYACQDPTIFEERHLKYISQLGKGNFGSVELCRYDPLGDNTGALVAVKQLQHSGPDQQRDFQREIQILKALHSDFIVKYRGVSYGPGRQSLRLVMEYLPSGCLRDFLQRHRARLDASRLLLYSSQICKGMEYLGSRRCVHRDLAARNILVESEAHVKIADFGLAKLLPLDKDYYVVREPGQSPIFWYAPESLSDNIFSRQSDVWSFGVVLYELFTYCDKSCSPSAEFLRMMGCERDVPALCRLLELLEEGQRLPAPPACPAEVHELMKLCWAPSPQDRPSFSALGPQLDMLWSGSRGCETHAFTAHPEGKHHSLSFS
T1 sequence (O60674 with tags, fused parts or gaps): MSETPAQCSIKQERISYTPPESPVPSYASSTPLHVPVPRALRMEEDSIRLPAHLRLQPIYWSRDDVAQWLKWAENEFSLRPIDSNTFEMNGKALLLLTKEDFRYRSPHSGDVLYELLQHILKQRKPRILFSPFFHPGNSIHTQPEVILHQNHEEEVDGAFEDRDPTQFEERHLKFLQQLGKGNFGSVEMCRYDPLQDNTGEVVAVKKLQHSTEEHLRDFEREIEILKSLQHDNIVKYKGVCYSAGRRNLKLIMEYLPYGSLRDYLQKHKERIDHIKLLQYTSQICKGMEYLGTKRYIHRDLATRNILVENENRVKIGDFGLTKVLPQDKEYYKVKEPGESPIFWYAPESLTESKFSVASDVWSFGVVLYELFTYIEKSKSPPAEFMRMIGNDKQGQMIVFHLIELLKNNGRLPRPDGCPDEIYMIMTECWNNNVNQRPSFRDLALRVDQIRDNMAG

For `CCCC(Nc1cncc(-c2ccc(OCCCO)c(OC)c2)n1)c1ccccc1` (stereo not drawn), the inhibition at 20 µM (in assay [1]; in assay [2]; with DU145 (Prostate Cancer); in assay [3]; in the assay with PC3 (Prostate Cancer)) was over 50% throughout. For the same compound, in assay [4], the “Tubulin inhibition of tubulin polymerisation” value (“Tubulin inhibition” for short) is given as “+ (compounds which inhibited tubulin polymerisation by greater than 50% at 50 μM)”.
`CCCC(Nc1cncc(-c2ccc(OCCN(CC)CC)c(OC)c2)n1)c1ccccc1` (stereo not drawn): the inhibition at 20 µM (in assay [1]; in assay [2]; in the assay with DU145 (Prostate Cancer); in assay [3]; with PC3 (Prostate Cancer)) was over 50% each time. Further, the “Tubulin inhibition” value in assay [4] was “+ (compounds which inhibited tubulin polymerisation by greater than 50% at 50 μM)”.
As to `CCCC(Nc1cncc(-c2ccc(NC(=O)NCC)c(OC)c2)n1)c1cncc(C)c1` (stereo not drawn), the inhibition at 20 µM (in assay [1]; in assay [2]; in the assay on DU145 (Prostate Cancer); in assay [3]; with PC3 (Prostate Cancer)) was over 50% throughout. Moreover, the “Tubulin inhibition” value in assay [4] was “+ (compounds which inhibited tubulin polymerisation by greater than 50% at 50 μM)”.
As for `CCC[C@H](Nc1cncc(-c2ccc(NC(=O)NCC)c(OC)c2)n1)c1cccnc1`, the inhibition at 20 µM (in assay [1]; in assay [2]; in the assay on DU145 (Prostate Cancer); in assay [3]; in the assay with PC3 (Prostate Cancer)) was over 50% in each case. The “Tubulin inhibition” value in assay [4] is “+ (compounds which inhibited tubulin polymerisation by greater than 50% at 50 μM)”.
Take `CCC[C@H](Nc1cncc(-c2ccc(NC(=O)NCC)c(C)c2)n1)c1cccnc1`: the inhibition at 20 µM (in assay [1]; in assay [2]; in the assay with DU145 (Prostate Cancer); in assay [3]; with PC3 (Prostate Cancer)) was over 50% each time. Also, the “Tubulin inhibition” value in assay [4] is recorded as “+ (compounds which inhibited tubulin polymerisation by greater than 50% at 50 μM)”.
In the case of `CCCC(Nc1cncc(-c2ccc(NC(=O)NCC)c(C)c2)n1)c1ccccn1` (stereo not drawn), the inhibition at 20 µM (in assay [1]; in assay [2]; with DU145 (Prostate Cancer); in assay [3]; in the assay with PC3 (Prostate Cancer)) was over 50% throughout. In addition, in assay [4], the “Tubulin inhibition” value was “+ (compounds which inhibited tubulin polymerisation by greater than 50% at 50 μM)”.
Consider `CCCC(Nc1cncc(-c2ccc(NC(=O)NCC)c(OC)c2)n1)c1ccccn1` (stereo not drawn), for which the inhibition at 20 µM (in assay [1]; in assay [2]; in the assay with DU145 (Prostate Cancer); in assay [3]; in the assay on PC3 (Prostate Cancer)) was over 50% throughout. In addition, the “Tubulin inhibition” value in assay [4] is “+ (compounds which inhibited tubulin polymerisation by greater than 50% at 50 μM)”.
Regarding `CCCC(Nc1cncc(-c2ccc(NC(=O)NCC)c(OC)c2)n1)c1cnccc1C` (stereo not drawn), the inhibition at 20 µM (in assay [1]; in assay [2]; with DU145 (Prostate Cancer); in assay [3]; with PC3 (Prostate Cancer)) was over 50% in each case. For the same compound, the “Tubulin inhibition” value in assay [4] is reported as “+ (compounds which inhibited tubulin polymerisation by greater than 50% at 50 μM)”.
As to `CCCC(Nc1cncc(-c2ccc(NC(=O)NCC)c(C)c2)n1)c1cnccc1C` (stereo not drawn), the inhibition at 20 µM (in assay [1]; in assay [2]; with DU145 (Prostate Cancer); in assay [3]; in the assay on PC3 (Prostate Cancer)) was over 50% in each case. Further, in assay [4], the “Tubulin inhibition” value is “+ (compounds which inhibited tubulin polymerisation by greater than 50% at 50 μM)”.
Turning to `CCC[C@H](Nc1cncc(-c2ccc(NC(=O)NCC)c(OC)c2)n1)c1ccccn1`, the inhibition at 20 µM (in assay [1]; in assay [2]; in the assay on DU145 (Prostate Cancer); in assay [3]; with PC3 (Prostate Cancer)) was over 50% in each case. The “Tubulin inhibition” value in assay [4] is on record as “+ (compounds which inhibited tubulin polymerisation by greater than 50% at 50 μM)”.
In the case of `CCCC(Nc1cncc(-c2ccc(NC(=O)NCC)c(OC)c2)n1)c1cccnc1C` (stereo not drawn), the inhibition at 20 µM (in assay [1]; in assay [2]; in the assay with DU145 (Prostate Cancer); in assay [3]; with PC3 (Prostate Cancer)) was over 50% throughout. The “Tubulin inhibition” value in assay [4] is on record as “+ (compounds which inhibited tubulin polymerisation by greater than 50% at 50 μM)”.
`CCC[C@H](Nc1cncc(-c2ccc(NC(=O)NC)c(OC)c2)n1)c1cccnc1`: the inhibition at 20 µM (in assay [1]; in assay [2]; in the assay with DU145 (Prostate Cancer); in assay [3]; in the assay with PC3 (Prostate Cancer)) was over 50% throughout. Besides, the “Tubulin inhibition” value in assay [4] is on record as “+ (compounds which inhibited tubulin polymerisation by greater than 50% at 50 μM)”.
As for `CCCC(Nc1nc(-c2ccc(NC(=O)NCC)c(OC)c2)cnc1C)c1ccccc1` (stereo not drawn), the inhibition at 20 µM (in assay [1]; in assay [2]; with DU145 (Prostate Cancer); in assay [3]; with PC3 (Prostate Cancer)) was over 50% in each case. Also, the “Tubulin inhibition” value in assay [4] is “+ (compounds which inhibited tubulin polymerisation by greater than 50% at 50 μM)”.
Turning to `CCNC(=O)Nc1ccc(-c2cncc(NC(CCOC)c3ccccc3)n2)cc1OC` (stereo not drawn), the inhibition at 20 µM (in assay [1]; in assay [2]; with DU145 (Prostate Cancer); in assay [3]; with PC3 (Prostate Cancer)) was over 50% in each case. Besides, the “Tubulin inhibition” value in assay [4] is recorded as “+ (compounds which inhibited tubulin polymerisation by greater than 50% at 50 μM)”.
For the compound `CCC[C@H](Nc1cc(-c2ccc(NC(=O)NCC)c(OC)c2)ncn1)c1cccnc1`, the inhibition at 20 µM (in assay [1]; in assay [2]; in the assay with DU145 (Prostate Cancer); in assay [3]; in the assay with PC3 (Prostate Cancer)) was over 50% throughout. Moreover, the “Tubulin inhibition” value in assay [4] is listed as “+ (compounds which inhibited tubulin polymerisation by greater than 50% at 50 μM)”.

(Values after US9732046B2, “Substituted 1,2,4-triazines as tubulin inhibitors” (YM Biosciences Australia Pty Ltd., priority 2003, dated 2017).)
